From patent publication US6376670B1, “Quinoline-indole antimicrobial agents, uses and compositions related thereto” (Sepracor Inc., priority 1997, dated 2002)
Where two headings read alike, the source gives them in different places.

Assays:
[1] = tested on: vancomycin-resistant Enterococcus spp. (VRE); experiment: Determination of MIC values (BHI broth, 96 well microtiter plate); type: cell-based; conditions: Enterococcus, VRE, BHI broth, read-out: MIC VREF
Procedure: (§1) Stock solutions of compounds are prepared with a concentration of 10 mg/mL. These solutions are then diluted 1:4 to give a concentration of 2.5 mg/mL. The compounds are then serially diluted 1:2 for 6 iterations. The concentrations made for each compound are 2.5, 1.25, 0.625, 0.3125, 0.156, 0.078, and 0.039 mg/mL. A control sample (no compound) is run along with each compound tested. All dilutions are made in DMSO.
(§2) All wells of a 96 well microtiter plate are filled with 100 μL of BHI (Brain-Heart Infusion) broth. Columns on the plate are labeled 1-12, and rows are labeled A-H. Each column of wells is used to test one series of diluted compounds. Into each well of 100 μL of BHI broth, 1 μL of diluted compound is placed for a 1:100 dilution. This makes the final concentration of each drug series 25, 12.5, 6.25, 3.125, 1.56, 0.78, 0.39, and 0 μg/mL.
(§3) Test Organism: A sterile 15 mL screw cap tube is filled wth 3 mL of BHI broth. Next, 2-3 colonies of test organism are inoculated into the tube. The tube is then incubated at 37° C. in a CO2 (approx. 7%) atmosphere jar. The organisms are allowed to grow to the density of a 0.5 McFarland standard (10^8 cells/mL). The organism is then inoculated into each well of the microtiter plate containing the diluted compounds to be tested for MIC. The inoculum is 1 μL in volume and represents 10^5 to 10^6 cells/mL.
(§4) After inoculation the plates are covered and incubated at 37° C. and approx. 7-10% CO2 atmosphere overnight (about 16 hours). The plates are then observed for growth, the well with the lowest concentration of drug and no observable growth represents the well determining the MIC.

[2] = tested on: methicillin-resistant Staphylococcus aureus (MRSA); experiment: as above; type: cell-based; conditions: Staphylococcus aureus, MRSA, BHI broth, read-out: MIC MRSA
Procedure: as §1, §2, §3, §4

[3] = 16 h, 37° C., overnight (about 16 hours)

Cc1ccc2[nH]cc(-c3cc(C(=O)NC(Cc4ccc5ccccc5c4)C(N)=O)c4ccccc4n3)c2c1 (stereo not drawn) [Example 146]
MIC [1, 3]: < 25 µg/mL
MIC [2, 3]: < 7 µg/mL

NC(=O)C(Cc1ccc2ccccc2c1)NC(=O)c1cc(-c2c[nH]c3ccc(Cl)cc23)nc2ccccc12 (stereo not drawn) [Example 147]
MIC [1, 3]: < 7 µg/mL
MIC [2, 3]: < 7 µg/mL

NC(=O)C(Cc1ccc([N+](=O)[O-])cc1)NC(=O)c1cc(-c2c[nH]c3ccc(Cl)cc23)nc2ccccc12 (stereo not drawn) [Example 148]
MIC [1, 3]: < 25 µg/mL
MIC [2, 3]: < 7 µg/mL

NC(=O)C(Cc1ccc([N+](=O)[O-])cc1)NC(=O)c1cc(-c2c[nH]c3ccc(Br)cc23)nc2ccccc12 (stereo not drawn) [Example 149]
MIC [1, 3]: > 25 µg/mL
MIC [2, 3]: < 7 µg/mL

NCc1ccc(CNC(=O)c2cc(-c3c[nH]c4ccc(Br)cc34)nc3cc4c(cc23)OCCO4)cc1 [Example 150]
MIC [1, 3]: > 25 µg/mL
MIC [2, 3]: > 25 µg/mL

Cc1c(-c2c[nH]c3ccc(Br)cc23)nc2ccc(I)cc2c1C(=O)NCc1ccc(CN)cc1 [Example 152]
MIC [1, 3]: < 25 µg/mL
MIC [2, 3]: < 7 µg/mL

O=C(O)c1cc(-c2c[nH]c3ccccc23)nc2ccc(I)cc12 [Example 155]
MIC [1, 3]: > 25 µg/mL
MIC [2, 3]: > 25 µg/mL

O=C(O)c1cc(-c2c[nH]c3ccccc23)nc2c(Cl)cccc12 [Example 156]
MIC [1, 3]: > 25 µg/mL
MIC [2, 3]: > 25 µg/mL

CC(C)(C)OC(=O)n1cc(-c2cc(C(=O)O)c3cccnc3n2)c2cc(Br)ccc21 [Example 157]
MIC [1, 3]: > 25 µg/mL
MIC [2, 3]: > 25 µg/mL

NCc1ccc(CNC(=O)c2cc(-c3c[nH]c4ccccc34)nc3c(Cl)cccc23)cc1 [Example 160]
MIC [1, 3]: < 25 µg/mL
MIC [2, 3]: < 25 µg/mL

NCc1ccc(CNC(=O)c2cc(-c3c[nH]c4ccc(Br)cc34)nc3ncccc23)cc1 [Example 162]
MIC [1, 3]: > 25 µg/mL
MIC [2, 3]: > 25 µg/mL

NCc1cccc(CNC(=O)c2cc(-c3ccsc3)nc3ccc(Br)cc23)c1 [Example 166]
MIC [1, 3]: > 25 µg/mL
MIC [2, 3]: > 25 µg/mL

Cn1cc(-c2ccc3cc(Cl)ccc3n2)c2cc(Br)ccc21 [Example 167]
MIC [1, 3]: > 25 µg/mL
MIC [2, 3]: > 25 µg/mL

Cn1cc(-c2ccc3ccccc3n2)c2ccccc21 [Example 176]
MIC [1, 3]: > 25 µg/mL
MIC [2, 3]: > 25 µg/mL

Cn1cc(-c2ccc3ccccc3n2)c2cc(Cl)ccc21 [Example 177]
MIC [1, 3]: > 25 µg/mL
MIC [2, 3]: > 25 µg/mL

Cn1cc(-c2ccc3ccccc3n2)c2cc(Br)ccc21 [Example 178]
MIC [1, 3]: > 25 µg/mL
MIC [2, 3]: > 25 µg/mL

Cn1cc(-c2ccc3cc(Cl)ccc3n2)c2ccccc21 [Example 179]
MIC [1, 3]: > 25 µg/mL
MIC [2, 3]: > 25 µg/mL

Cn1cc(-c2ccc3cc(Cl)ccc3n2)c2cc(Cl)ccc21 [Example 180]
MIC [1, 3]: > 25 µg/mL
MIC [2, 3]: > 25 µg/mL

Fc1cccc2[nH]cc(-c3ccc4ccccc4n3)c12 [Example 182]
MIC [1, 3]: > 25 µg/mL
MIC [2, 3]: > 25 µg/mL

COc1ccc2[nH]cc(-c3ccc4ccccc4n3)c2c1 [Example 185]
MIC [1, 3]: > 25 µg/mL
MIC [2, 3]: < 25 µg/mL

O=[N+]([O-])c1ccc2[nH]cc(-c3ccc4ccccc4n3)c2c1 [Example 186]
MIC [1, 3]: > 25 µg/mL
MIC [2, 3]: > 25 µg/mL

Cc1[nH]c2ccccc2c1-c1ccc2ccccc2n1 [Example 187]
MIC [1, 3]: > 25 µg/mL
MIC [2, 3]: > 25 µg/mL

Cc1ccc2[nH]cc(-c3ccc4ccccc4n3)c2c1 [Example 188]
MIC [1, 3]: > 25 µg/mL
MIC [2, 3]: > 25 µg/mL

Cc1cccc2c(-c3ccc4ccccc4n3)c[nH]c12 [Example 189]
MIC [1, 3]: < 25 µg/mL
MIC [2, 3]: < 25 µg/mL

N#Cc1ccc2[nH]cc(-c3ccc4ccccc4n3)c2c1 [Example 190]
MIC [1, 3]: > 25 µg/mL
MIC [2, 3]: > 25 µg/mL

Fc1cccc2[nH]cc(-c3ccc4cc(Cl)ccc4n3)c12 [Example 192]
MIC [1, 3]: > 25 µg/mL
MIC [2, 3]: > 25 µg/mL

Cc1[nH]c2ccccc2c1-c1ccc2cc(Cl)ccc2n1 [Example 197]
MIC [1, 3]: > 25 µg/mL
MIC [2, 3]: < 7 µg/mL

Cc1ccc2[nH]cc(-c3ccc4cc(Cl)ccc4n3)c2c1 [Example 198]
MIC [1, 3]: > 25 µg/mL
MIC [2, 3]: > 25 µg/mL

Clc1ccc2nc(-c3c(-c4ccccc4)[nH]c4ccccc34)ccc2c1 [Example 203]
MIC ([1]; VREF, overnight 37° C.): > 25 µg/mL
MIC ([2]; overnight 37° C.): > 25 µg/mL

Oc1ccc2[nH]cc(-c3ccc4cc(Cl)ccc4n3)c2c1 [Example 205]
MIC ([1]; VREF, overnight 37° C.): < 25 µg/mL
MIC ([2]; overnight 37° C.): < 25 µg/mL

COc1cc2[nH]cc(-c3ccc4cc(Cl)ccc4n3)c2cc1OC [Example 206]
MIC ([1]; VREF, overnight 37° C.): > 25 µg/mL
MIC ([2]; overnight 37° C.): > 25 µg/mL

O=C(O)c1cc(-c2c[nH]c3ccc(Br)cc23)nc2ccc(C#CCN3CCNCC3)cc12 [Example 207]
MIC ([1]; VREF, overnight 37° C.): < 25 µg/mL
MIC ([2]; overnight 37° C.): > 25 µg/mL

Cn1cc(-c2ccc3cc(Cl)ccc3n2)c2cc(F)ccc21 [Example 210]
MIC ([1]; VREF, overnight 37° C.): > 25 µg/mL
MIC ([2]; overnight 37° C.): < 7 µg/mL

Cn1cc(-c2ccc3cc(Cl)ccc3n2)c2ccc(F)cc21 [Example 212]
MIC ([1]; VREF, overnight 37° C.): > 25 µg/mL
MIC ([2]; overnight 37° C.): > 25 µg/mL

Cn1cc(-c2ccc3cc(Cl)ccc3n2)c2cc(OCc3ccccc3)ccc21 [Example 213]
MIC ([1]; VREF, overnight 37° C.): < 25 µg/mL
MIC ([2]; overnight 37° C.): < 25 µg/mL

COc1ccc2c(c1)c(-c1ccc3cc(Cl)ccc3n1)cn2C [Example 214]
MIC ([1]; VREF, overnight 37° C.): > 25 µg/mL
MIC ([2]; overnight 37° C.): < 25 µg/mL

Cc1c(-c2ccc3cc(Cl)ccc3n2)c2ccccc2n1C [Example 215]
MIC ([1]; VREF, overnight 37° C.): < 25 µg/mL
MIC ([2]; overnight 37° C.): < 7 µg/mL

Cc1ccc2c(c1)c(-c1ccc3cc(Cl)ccc3n1)cn2C [Example 216]
MIC ([1]; VREF, overnight 37° C.): > 25 µg/mL
MIC ([2]; overnight 37° C.): < 25 µg/mL

Cn1c(-c2ccccc2)c(-c2ccc3cc(Cl)ccc3n2)c2ccccc21 [Example 220]
MIC ([1]; VREF, overnight 37° C.): > 25 µg/mL
MIC ([2]; overnight 37° C.): < 25 µg/mL

COc1cc2c(-c3ccc4cc(Cl)ccc4n3)cn(C)c2cc1OC [Example 222]
MIC ([1]; VREF, overnight 37° C.): > 25 µg/mL
MIC ([2]; overnight 37° C.): > 25 µg/mL

CN(CC#Cc1ccc2nc(-c3c[nH]c4ccc(Br)cc34)cc(C(=O)NCc3ccc(CN)cc3)c2c1)C1CCCCC1 [Example 237]
MIC ([1]; VREF, overnight 37° C.): < 7 µg/mL
MIC ([2]; overnight 37° C.): < 7 µg/mL

NCC1CCCC(CNC(=O)c2cc(-c3c[nH]c4ccc(Br)cc34)nc3cc(F)ccc23)C1 (stereo not drawn) [Example 255]
MIC ([1]; VREF, overnight 37° C.): < 7 µg/mL
MIC ([2]; overnight 37° C.): < 7 µg/mL

CN(CC#Cc1ccc2c(C(=O)NCc3ccc(CN)cc3)cc(-c3c[nH]c4ccc(Br)cc34)nc2c1)C1CCCCC1 [Example 264]
MIC ([1]; VREF, overnight 37° C.): < 25 µg/mL
MIC ([2]; overnight 37° C.): < 7 µg/mL

CN(CC#Cc1cccc2c(C(=O)NCc3ccc(CN)cc3)cc(-c3c[nH]c4ccc(Br)cc34)nc12)C1CCCCC1 [Example 265]
MIC ([1]; VREF, overnight 37° C.): < 7 µg/mL
MIC ([2]; overnight 37° C.): < 7 µg/mL

O=C1c2ccccc2C(=O)N1CCCCn1cc(-c2ccc3cc(Cl)ccc3n2)c2ccc(F)cc21 [Example 267]
MIC ([1]; VREF, overnight 37° C.): > 25 µg/mL
MIC ([2]; overnight 37° C.): > 25 µg/mL

NCc1ccc(CNC(=O)c2cc(-c3c[nH]c4ccc(Br)cc34)nc3cc(Cl)c(C#CCN4CCCCC4)cc23)cc1 [Example 268]
MIC ([1]; VREF, overnight 37° C.): < 7 µg/mL
MIC ([2]; overnight 37° C.): < 7 µg/mL

Cn1cc(-c2cc(C(=O)NCc3ccc(CN)cc3)c3cc(I)ccc3n2)c2cc(Br)ccc21 [Example 269]
MIC ([1]; VREF, overnight 37° C.): < 7 µg/mL
MIC ([2]; overnight 37° C.): < 7 µg/mL

Cc1ccc2nc(-c3c[nH]c4ccc(C#N)cc34)ccc2c1 [Example 433]
MIC ([1]; 16 h, 37° C., about 16 hours): > 25 µg/mL
MIC ([2]; 16 h, 37° C., about 16 hours): < 7 µg/mL

NCCCNC(=O)c1cc(-c2c[nH]c3ccccc23)nc2ccccc12 [compound 1]
MIC [1, 3]: > 25 µg/mL
MIC [2, 3]: > 25 µg/mL

NCCNC(=O)c1cc(-c2c[nH]c3ccc(Br)cc23)nc2ccccc12 [compound 2]
MIC [1, 3]: < 25 µg/mL
MIC [2, 3]: < 25 µg/mL

NCCCNC(=O)c1cc(-c2c[nH]c3ccc(Br)cc23)nc2ccccc12 [compound 3]
MIC [1, 3]: < 25 µg/mL
MIC [2, 3]: < 25 µg/mL
